Data reported in patent US10913727B2, “Modulators of the integrated stress pathway” (Calico Life Sciences LLC, priority 2016, dated 2021).

System: HEK293T cells carrying the ATF4 luciferase reporter
Test: ATF4-Luc assay, in vitro model of Vanishing Cell White Matter Disease (VWMD)
Assay type: cell-based
Settings: Homo sapiens, HEK-293T, 1 μg/mL tunicamycin, 7 hours, One Glo luminescence
Protocol: In order to test exemplary compounds of the invention in a cellular context, a stable VWMD cell line was first constructed. The ATF4 reporter was prepared by fusing the human full-length ATF4 5′-UTR (NCBI Accession No. BC022088.2) in front of the firefly luciferase (FLuc) coding sequence lacking the initiator methionine as described in Sidrauski et al (eLife 2013). The construct was used to produce recombinant retroviruses using standard methods and the resulting viral supernatant was used to transduce HEK293T cells, which were then subsequently selected with puromycin to generate a stable cell line.
HEK293T cells carrying the ATF4 luciferase reporter were plated on polylysine coated 384-well plates (Greiner Bio-one) at 30,000 cells per well. Cells were treated the next day with 1 μg/mL tunicamycin and 200 nM of a compound of Formula (I) for 7 hours. Luminescence was measured using One Glo (Promega) as specified by the manufacturer. Cells were maintained in DMEM with L-glutamine supplemented with 10% heat-inactivated FBS (Gibco) and Antibiotic-Antimycotic solution (Gibco).
Table 2 below summarizes the EC50 data obtained using the ATF4-Luc assay for exemplary compounds of the invention.

| Compound | EC50 [nM] |
| --- | --- |
| O=C(COc1ccc(Cl)c(F)c1)NC12CC(NC(=O)c3ccc(C(F)(F)F)cn3)(C1)C2 [Compound 120, N-{3-[2-(4-chloro-3-fluorophenoxy)acetamido]bicyclo[1.1.1]pentan-1-yl}-5-(trifluoromethyl)pyridine-2-carboxamide] | 50 to 250 |
| Cc1ncc(C(=O)NC23CC(NC(=O)COc4ccc(Cl)c(F)c4)(C2)C3)cn1 [Compound 121, N-{3-[2-(4-chloro-3-fluorophenoxy)acetamido]bicyclo[1.1.1]pentan-1-yl}-2-methylpyrimidine-5-carboxamide] | 1000 to 2000 |
| O=C(COc1ccc(Cl)c(F)c1)NC12CC(NC(=O)c3cc4ncccn4n3)(C1)C2 [Compound 122, N-{3-[2-(4-chloro-3-fluorophenoxy)acetamido]bicyclo[1.1.1]pentan-1-yl}pyrazolo[1,5-a]pyrimidine-2-carboxamide] | 1000 to 2000 |
| O=C(COc1ccc(Cl)c(F)c1)NC12CC(NC(=O)c3ccc(N4CCCC4)cn3)(C1)C2 [Compound 123, N-{3-[2-(4-chloro-3-fluorophenoxy)acetamido]bicyclo[1.1.1]pentan-1-yl}-5-(pyrrolidin-1-yl)pyridine-2-carboxamide] | 250 to 1000 |
| COc1cnc(C(=O)NC23CC(NC(=O)COc4ccc(Cl)c(F)c4)(C2)C3)cn1 [Compound 124, N-{3-[2-(4-chloro-3-fluorophenoxy)acetamido]bicyclo[1.1.1]pentan-1-yl}-5-methoxypyrazine-2-carboxamide] | 1000 to 2000 |
| O=C(COc1ccc(Cl)c(F)c1)NC12CC(NC(=O)c3cc4n(n3)CCCN4)(C1)C2 [Compound 125, N-{3-[2-(4-chloro-3-fluorophenoxy)acetamido]bicyclo[1.1.1]pentan-1-yl}-4,5,6,7-tetrahydropyrazolo[1,5-a]pyrimidine-2-carboxamide] | > 2000 |
| O=C(COc1ccc(Cl)c(F)c1)NC12CC(NC(=O)c3cnc(C4CCC(F)(F)CC4)o3)(C1)C2 [Compound 126, N-{3-[2-(4-chloro-3-fluorophenoxy)acetamido]bicyclo[1.1.1]pentan-1-yl}-2-(4,4-difluorocyclohexyl)-1,3-oxazole-5-carboxamide] | 50 to 250 |
| O=C(COc1ccc(Cl)c(F)c1)NC12CC(Nc3ccc(C(F)(F)F)nn3)(C1)C2 [Compound 127, 2-(4-chloro-3-fluorophenoxy)-N-(3-{[6-(trifluoromethyl)pyridazin-3-yl]amino}bicyclo[1.1.1]pentan-1-yl)acetamide] | > 2000 |
| O=C(COc1ccc2c(c1)OC(F)(F)O2)NC12CC(NC(=O)c3ccc(C(=O)O)cc3)(C1)C2 [Compound 128, 4-[(3-{2-[(2,2-difluoro-2H-1,3-benzodioxol-5-yl)oxy]acetamido}bicyclo[1.1.1]-pentan-1-yl)carbamoyl]benzoic acid] | > 2000 |
| O=C(COc1ccc(Cl)c(F)c1)NC12CC(NC(=O)c3ccccn3)(C1)C2 [Compound 129, N-{3-[2-(4-chloro-3-fluorophenoxy)acetamido]bicyclo[1.1.1]pentan-1-yl}pyridine-2-carboxamide] | 50 to 250 |
| O=C(COc1ccc(Cl)c(F)c1)NC12CC(NC(=O)c3cccnc3)(C1)C2 [Compound 130, N-{3-[2-(4-chloro-3-fluorophenoxy)acetamido]bicyclo[1.1.1]pentan-1-yl}pyridine-3-carboxamide] | 50 to 250 |
| Cc1cnc(C(=O)NC23CC(NC(=O)COc4ccc(Cl)c(Cl)c4)(C2)C3)cn1 [Compound 131, N-{3-[2-(3,4-dichlorophenoxy)acetamido]bicyclo[1.1.1]pentan-1-yl}-5-methylpyrazine-2-carboxamide] | 50 to 250 |
| O=C(COc1ccc(Cl)c(F)c1)NC12CC(NC(=O)c3ccc(OC(F)(F)F)nc3)(C1)C2 [Compound 132, N-{3-[2-(4-chloro-3-fluorophenoxy)acetamido]bicyclo[1.1.1]pentan-1-yl}-6-(trifluoromethoxy)pyridine-3-carboxamide] | 50 to 250 |
| O=C(COc1ccc(Cl)c(F)c1)NC12CC(NC(=O)c3cnc(C(F)(F)F)nc3)(C1)C2 [Compound 133, N-{3-[2-(4-chloro-3-fluorophenoxy)acetamido]bicyclo[1.1.1]pentan-1-yl}-2-(trifluoromethyl)pyrimidine-5-carboxamide] | 1000 to 2000 |
| O=C(COc1ccc(Cl)c(F)c1)NC12CC(NC(=O)c3cnc(C(F)F)cn3)(C1)C2 [Compound 134, N-{3-[2-(4-chloro-3-fluorophenoxy)acetamido]bicyclo[1.1.1]pentan-1-yl}-5-(difluoromethyl)pyrazine-2-carboxamide] | < 50 |
| CCCCc1ccc(C(=O)NC23CC(NC(=O)COc4ccc(Cl)c(F)c4)(C2)C3)nc1 [Compound 135, 5-butyl-N-{3-[2-(4-chloro-3-fluorophenoxy)acetamido]bicyclo[1.1.1]pentan-1-yl}pyridine-2-carboxamide] | 50 to 250 |
| Cc1cnc(C(=O)NC23CC(NC(=O)COc4ccc(Cl)cc4)(C2)C3)cn1 [Compound 136, N-{3-[2-(4-chlorophenoxy)acetamido]bicyclo[1.1.1]pentan-1-yl}-5-methylpyrazine-2-carboxamide] | 250 to 1000 |
| Cc1ccc(C(=O)NC23CC(NC(=O)COc4ccc(Cl)c(F)c4)(C2)C3)nn1 [Compound 137, N-{3-[2-(4-chloro-3-fluorophenoxy)acetamido]bicyclo[1.1.1]pentan-1-yl}-6-methylpyridazine-3-carboxamide] | 1000 to 2000 |
| O=C(COc1ccc(Cl)c(F)c1)NC12CC(NC(=O)c3cnc(C4=CCOCC4)o3)(C1)C2 [Compound 138, N-{3-[2-(4-chloro-3-fluorophenoxy)acetamido]bicyclo[1.1.1]pentan-1-yl}-2-(3,6-dihydro-2H-pyran-4-yl)-1,3-oxazole-5-carboxamide] | 50 to 250 |
| O=C(COc1ccc(Cl)c(F)c1)NC12CC(NC(=O)c3cnc(C4CCOCC4)o3)(C1)C2 [Compound 139, N-{3-[2-(4-chloro-3-fluorophenoxy)acetamido]bicyclo[1.1.1]pentan-1-yl}-2-(oxan-4-yl)-1,3-oxazole-5-carboxamide] | 250 to 1000 |
| Cc1ccc(C(=O)NC23CC(NC(=O)COc4ccc(Cl)c(F)c4)(C2)C3)cn1 [Compound 140, N-{3-[2-(4-chloro-3-fluorophenoxy)acetamido]bicyclo[1.1.1]pentan-1-yl}-6-methylpyridine-3-carboxamide] | 250 to 1000 |
| COc1ccc(C(=O)NC23CC(NC(=O)COc4ccc(Cl)c(F)c4)(C2)C3)nc1 [Compound 141, N-{3-[2-(4-chloro-3-fluorophenoxy)acetamido]bicyclo[1.1.1]pentan-1-yl}-5-methoxypyridine-2-carboxamide] | 250 to 1000 |
| Cc1cnc(C(=O)NC23CCC(NC(=O)COc4ccc(Cl)c(Cl)c4)(C2)C3)cn1 [Compound 142, N-{4-[2-(3,4-dichlorophenoxy)acetamido]bicyclo[2.1.1]hexan-1-yl}-5-methylpyrazine-2-carboxamide] | 250 to 1000 |
| O=C(COc1ccc(Cl)c(F)c1)NC12CC(NC(=O)c3ccc(C4CC4)cn3)(C1)C2 [Compound 143, N-{3-[2-(4-chloro-3-fluorophenoxy)acetamido]bicyclo[1.1.1]pentan-1-yl}-5-cyclopropylpyridine-2-carboxamide] | 50 to 250 |
| O=C(COc1ccc(Cl)c(Cl)c1)NC12CC(NC(=O)c3ccc(OC(F)(F)F)cn3)(C1)C2 [Compound 144, N-{3-[2-(3,4-dichlorophenoxy)acetamido]bicyclo[1.1.1]pentan-1-yl}-5-(trifluoromethoxy)pyridine-2-carboxamide] | < 50 |
